In patent US20240415855A1, “COMPOSITIONS AND METHODS RELATING TO USE OF PHOSPHATIDIC ACID TO RESCUE FETAL ALCOHOL SPECTRUM DISORDER (FASD) GROWTH RESTRICTION AND BLOOD VESSEL CONSTRICTION” (Wayne State University, priority 2023, published 2024):
Like-named read-outs stand apart in the source and are kept apart here.

Tests used:
[1] = test system: pregnant Sprague-Dawley rats; test: Maternal and fetal growth assessment in FASD rat model (binge alcohol with or without in vivo PA)
Method: (§2) Molecule administered: PA (#840857C, Avanti Polar Lipids) was air-dried under a gentle stream of nitrogen gas and resuspended in 1% BSA to make a 10^−2 M stock solution. PA was administered to pregnant rats in vivo at a dose of 4.5 mg/kg/day for alcohol dose of 4.5 g/kg body weight from gestation day 4 through 10 and 6 mg/kg/day for alcohol dose of 6 g/kg body weight from gestation day 11 through 19 or 20.
(§3) Timed pregnant Sprague-Dawley rats (8-12 weeks old), were purchased from Charles River (Wilmington, MA, USA) and arrived on GD 4, where they were housed in a temperature-controlled room (23° C.) with a 12:12 h light-dark cycle. The dams were acclimatized for a day before weighing and handling. The dams were then assigned into experimental groups. Four in vivo treatment groups were utilized: (1) a nutritional pair-fed control group (control), that served as a control for nutrition and for the gavage procedure. To control for the calories derived from alcohol, these pair-fed control rats were administered isocaloric maltose-dextrin (once-daily) via orogastric gavage. […] (3) An in vivo phosphatidic acid (PA) control group (control PA), to control for the in vivo PA supplement. […] (4) A binge alcohol in vivo PA group (alcohol PA), that received alcohol via intragastric gavage similar to those in the binge alcohol group along with the PA supplement. Daily PA doses were calculated based on the dam's weight at the time of administration (PA (μL)=0.2×dam weight (g) GD 5-10; PA (μL)=0.2105×weight (g) GD 11-19). Intake of food in the alcohol treatment group was measured, and an equivalent amount of food was given to the pair-fed control dams to account for additional nutritional factors. Rats were euthanized by decapitation while under isoflurane anesthesia.
(§4) Maternal weights and fetal weights were measured on GD 20-21, one day after the last treatment on GD 19-20, following euthanasia.
(§5) Maternal weight and fetal weight (unit of analysis is a dam or litter) were analyzed using two-way mixed ANOVA with alcohol as the between factor and PA as the within factor. Normality was tested using the Shapiro-Wilk normality test where appropriate. […] The data were considered significant if the p value was <0.05.

[2] = test system: endothelial nitric oxide synthase (eNOS); test: Uterine artery eNOS immunoblotting / immunofluorescence after in vivo treatment; set-up: species or system rat; conditions: for Total eNOS levels in uterine artery: ethanol and/or PA treatment; for P-Ser1177 eNOS level in uterine artery: ethanol/alcohol-exposed vs control, P<0.05
Method: (§1) The dams were then assigned into experimental groups. […] Rats were euthanized by decapitation while under isoflurane anesthesia.
Immunoblotting was performed using standard laboratory procedures. Following euthanasia, the uterine arteries were isolated by separating the vein, and cleaning the adipose tissues in HBS, before flash freezing for immunoblot analysis. Tissues were first homogenized using a 4° C. cooled bead homogenizer (Benchmark Scientific, Sayreville, NJ, USA) and then quantified using BCA protein quantification assay. Next, 20 μg of the uterine artery sample protein was then loaded on to 4-20% mini-protean TGX gels (Bio-rad, Hercules, CA, USA). Following transfer to a PVDF membrane, P-Ser1177 eNOS (Novus Biologicals, Centennial, CO, USA), total eNOS (BD Biosciences, Franklin Lakes, NJ, USA), and β-Actin (Sigma Aldrich, St. Louis, MI, USA) were probed. Densitometry analysis was performed using AzureSpot (Azure Biosystems, Dublin, CA, USA).
Immunofluorescence assessments were performed using previously published protocols. In brief, maternal uterine arteries were sectioned at 8 μm with a Leica cryostat (CM1860, Leica Biosystems, Buffalo Grove, IL, USA). Sections were subsequently fixed with ice-cold methanol (30 min, −20° C.), and then rinsed in PBS, and incubated in 10% normal serum (60 min). This was followed by incubation with (1:100; p1177-eNOS; Cell Signaling and 1:250; total eNOS, BD Biosciences) primary antibody overnight at 4° C. in a humidified chamber. The sections were then incubated with goat anti-rabbit IgG secondary antibody (Alexa Fluor 488, Invitrogen, Carlsbad, CA, USA), for 1 h at room temperature. Digital images were captured with an Olympus BX63 […] that was equipped with U-HGLGPS fluorescent light source, ORCA-Flash 4.0 LT camera, Hamamatsu Photonics (Hamamatsu, Japan), and Olympus cellSens Dimension software Version 3.2 (Olympus, Tokyo, Japan).

[3] = test system: uterine artery; test: Pressure arteriography of uterine artery (ACh-induced vasodilation) after in vivo treatment; set-up: species or system rat; conditions: ethanol/alcohol group vs control, p<0.05
Method: as §1
Following euthanasia, the entirety of the uterus was excised and immediately placed in ice-cold HBS for pressure arteriography experiments. Uterine artery functional assessments were performed following uterine artery isolation using established procedures. Briefly, the uterine horn was transferred to a 200 mm petri dish with solidified Sylgard to facilitate tissue isolation and cleaning in ice-cold HBS. A 3-5 mm segment of the primary uterine artery was dissected between arterial bifurcations from the approximate center of the uterine horn. Surrounding adipose and connective tissues were carefully removed from the uterine artery segment. […] Intramural pressure was then increased to mimic in vivo pressures at 90 mm Hg, at which pressure the ACh concentration responses were measured. Vessels were pre-constricted with 10^−6 M Tbx as determined previously. […] The above treatment was followed by the administration of three-fold increasing concentrations of ACh from 10^−10 M up to 10^−5 M. Vascular response was recorded by established methods using Ionwizard software version 6.6 (Ionoptix LLC, Westwood, MA, USA) for at least 5 min, or until arterial diameter stabilized.

[4] = test system: pregnant Sprague-Dawley rats; conditions: rat, in vivo
Method: as §2, §3, §4, §5

[5] = fetuses from ethanol-fed rats, P<0.05

Compound | Maternal body weights ([1]; GD 20-21, control, alcohol, control PA, alcohol PA groups) | Average litter size ([1]; alcohol group) | Mean fetal weights ([1]; alcohol group vs control, p<0.0001) | Crown-rump length lower than pair-fed control [1, 5] [%] | Mean fetal weight lower than pair-fed control [1, 5] [%] | Total eNOS levels in uterine artery [2] | Total eNOS levels in uterine artery ([2]; listed as alcohol) | P-Ser1177 eNOS level in uterine artery [2] | P-Ser1177 eNOS level in uterine artery ([2]; listed as Alcohol) | P-Ser1177 eNOS level in uterine artery ([2]; listed as Ethanol) | Acetylcholine-induced uterine artery relaxation (vasodilation) [3] | Acetylcholine-induced uterine artery relaxation (vasodilation) ([3]; listed as alcohol) | Maternal body weights [4]
CCO [ethanol] | did not differ among the treatment groups | 10.83±1.33 | significantly lower | ~8 | ~9 | Neither ethanol treatment nor PA affected total eNOS levels | Neither alcohol nor PA had any effect on total eNOS | decreases | significantly reduced | significantly reduced | significantly impaired | significantly decreased | 
L-α-phosphatidic acid [PA] |  |  |  |  |  |  |  |  |  |  |  |  | did not differ among the treatment groups
